According to US20230033582A1, “POLYMERIC NANOPARTICLES FOR ENHANCED CANCER TREATMENT” (THE QUEEN'S UNIVERSITY OF BELFAST, priority 2019, published 2023):

Assays:
MC38 cells = assay: Flow cytometry of SIINFEKL presentation on MHC I (SIINFEKL-bound MHC antibody) in MC38 cells; format: cell-based; details: for presentation of NP-encapsulated OVA-derived SIINFEKL after pre-treatment: then OVA-NPs for 6 hours
Description: FIG. 8: illustrate the results of Gemcitabine enhances SIINFEKL presentation: MC38 cells were pretreated with 30 nm Gemcitabine for 24 hours. Then, cells were treated with 1 μM SIINFEKL peptide for 6 hours. After 6 hours, cells were stained with PE-SIINFEKL-bound MHC antibody to determine the levels of SIINFEKL presentation. Presentation of SIINFEKL was enhanced after pre-treatment with Gemcitabine highlighting the potential of boosting CD8+ T cell recognition of tumour cells through combining the nanoformulation with Gemcitabine;
(§1) FIG. 9: illustrate the results of Gemcitabine enhances the presentation of Ovalbumin-derived SIINFEKL encapsulated within nanoparticles: MC38 cells were pre-treated with 7.5, 15 and 30 nm Gemcitabine for 24 hours. Then, the cells were treated with OVA-NPs for 6 hours. After 6 hours, cells were stained with PE-SIINFEKL-Bound MHC antibody and an isotype control antibody to determine levels of OVA-derived SIINFEKL presentation. NP-encapsulated OVA-derived SIINFEKL was seen to be enhanced after pre-treatment with Gemcitabine;
FIG. 10: illustrate the results of Epigenetic modifying agents (EMAs) enhance the presentation of Ovalbumin-derived SIINFEKL encapsulated within nanoparticles: MC38 cells were pre-treated with Entinostat and Decitabine. After 24 hours, cells were treated with OVA-NPs (250 μg/mL) for 6 hours. Cells were stained with SIINFEKL-bound MHC antibody and the surface presentation of SIINFEKL was determined by flow cytometry. Both agents in combination enhanced SIINFEKL presentation;
as §1, with “11:” for “9:”, “Lysosome disruptive agent L-leucyl-L-leucine methyl ester (LLOME)” for “Gemcitabine”, “LLOME” for “7.5, 15 and 30 nm Gemcitabine”, “PE-SIINFEKL-bound” for “PE-SIINFEKL-Bound”, “LLOME;” for “Gemcitabine;”
as §1, with “12:” for “9:”, “the anti-malarial Mefloquine” for “Gemcitabine”, “Mefloquine” for “7.5, 15 and 30 nm Gemcitabine”, “PE-SIINFEKL-bound” for “PE-SIINFEKL-Bound”, “Mefloquine.” for “Gemcitabine;”
MC38 cells were seeded at 5×10^4 in 6 well plates and left overnight to adhere in 2 mL of the appropriate growth medium. Following this, the cells were treated with 250 μg/mL of either acid terminated poly(lactic-co-glycolic acid) (PLGA) nanoparticles (NPs) or PLGA NPs encapsulating the SIINFEKL peptide (for cells treated at 4 degrees C., cells were maintained at 4° C. for 45 minutes prior to treatment). Following treatment, the cells were washed 3 times with sterile PBS (4° C. treatment group were washed on ice) and the cells incubated for a following 6 hours at 37° C. The surface expression of SIINFEKL was determined by flow cytometry.
MC38 cells were seeded at 5×10^4 in 6 well plates and left overnight to adhere in 2 mL of the appropriate growth medium. Following this, the cells were treated with 250 μg/mL of either acid terminated poly(lactic-co-glycolic acid) (PLGA) nanoparticles (NPs) or PLGA NPs encapsulating the Ovalbumin protein. Free, pre-processed SIINFEKL was used as a positive control. Cells were incubated for 24 hours at 37° C. Following this, the cells were collected and incubated with a PE-conjugated antibody specific for MHC-I bound to the SIINFEKL peptide (Biolegend, USA). Next, presentation of the SIINFEKL peptide was assessed by flow cytometry. […]

[1] = target: SIINFEKL bound to MHC class I on the cell surface (UniProt P01901); assay: flow cytometry, JAWS II cells treated with free SIINFEKL
JAWS II cells = assay: Flow cytometry of SIINFEKL presentation on MHC I (SIINFEKL-bound MHC antibody) in JAWS II dendritic cell line; format: cell-based; details: FIG. 5, free SIINFEKL positive control, 6 hours
Description: FIG. 5: illustrate the results of Nanoparticle encapsulated SIINFEKL is presented on MHC I in the JAWS II dendritic cell line: JAWS II cells were seeded in 6 well plates at 1×10^5 and left overnight. The following day, cells were treated with either 500 μg of PLGA-SIINFEKL NP (SIINFEKL NP), PLGA NP (B-NP) or free SIINFEKL (Positive control). The cells were incubated at 37° C. in 5% CO2 for 6 hours. After incubation, an antibody specific for SIINFEKL bound to MHC I was used to detect cell surface expression of the antigen. Assessment was undertaken using flow cytometry. An Isotype specific IgG control (SIINFEKL IgG) was used to detect non-specific binding of the antibody. […] Diagram is a representative figure from 3 independent experiments;
FIG. 6: illustrate the results of Presentation of nanoparticle-encapsulated SIINFEKL is dependent on endocytosis: (A) JAWS II cells and (B) MC38 cells ells were treated with either 250 μg/mL blank nanoparticles (B-NP), 250 μg/mL nanoparticles encapsulating the SIINFEKL peptide (SIINFEKL-NP) or 1 μM free SIINFEKL (positive control) for 1 hour at either 4° C. or 37° C. Cells were washed to remove non-endocytosed nanoparticles or free peptide and were incubated at 37° C. Cells were stained with SIINFEKL-bound MHC antibody and SIINFEKL presentation was determined by flow cytometry. […]

[2] = FIG. 11 and 12, MC38 cells pre-treated for 24 hours

Nc1ccccc1NC(=O)c1ccc(CNC(=O)OCc2cccnc2)cc1 [Entinostat]
SIINFEKL presentation after pre-treatment, both agents in combination (MC38 cells; FIG. 10, MC38 cells pre-treated with Entinostat and Decitabine 24 hours, then OVA-NPs (250 μg/mL) for 6 hours): enhanced

Nc1ccn([C@@H]2O[C@H](CO)[C@@H](O)C2(F)F)c(=O)n1 [Gemcitabine]
Presentation of SIINFEKL after pre-treatment (MC38 cells; FIG. 8, MC38 cells pretreated with 30 nm Gemcitabine for 24 hours, then 1 μM SIINFEKL peptide for 6 hours): enhanced
presentation of NP-encapsulated OVA-derived SIINFEKL after pre-treatment (MC38 cells; FIG. 9, MC38 cells pre-treated with 7.5, 15 and 30 nm Gemcitabine for 24 hours): enhanced

COC(=O)[C@H](CC(C)C)NC(=O)[C@@H](N)CC(C)C [LLOME, L-leucyl-L-leucine methyl ester]
presentation of NP-encapsulated OVA-derived SIINFEKL after pre-treatment (MC38 cells; [2]): enhanced

OC(c1cc(C(F)(F)F)nc2c(C(F)(F)F)cccc12)C1CCCCN1 (centres unmarked) [Mefloquine]
presentation of NP-encapsulated OVA-derived SIINFEKL after pre-treatment (MC38 cells; [2]): enhanced

PE-conjugated antibody specific for MHC-I bound to the SIINFEKL peptide (Biolegend, USA)
positive cells [1]: 100%

SIINFEKL (Model Peptide) [SIINFEKL peptide, positive control]
cells positive for SIINFEKL-MHC I antibody staining (JAWS II cells): ~100%
SIINFEKL on the cell surface (fluorescent signal, geomean) (MC38 cells; FIG. 3, MC38 cells, 1 μM SIINFEKL peptide for 4 hours): high levels SIINFEKL on the surface
